{"source": "patent US20260335306A1", "about": "“DOSAGE REGIMENS OF ESTROGEN RECEPTOR DEGRADERS” (priority 2022, published 2026)", "key": {"[1]": {"test_system": "MCF7 orthotopic xenograft", "assay": "MCF7 orthotopic xenograft model, ribociclib study", "format": "in vivo, NOD/SCID mice", "settings": "28 days; Compound A 30 mg/kg, ribociclib 75 mg/kg orally QD, fulvestrant 200 mg/kg SC; FIG. 3B", "method": "Mean tumor volumes are reported ±SEM. Single-day dosing holidays are indicated by small black arrows.\nCompounds dosed as single agents or in combination, 10 mice/arm.\n(§1) Briefly, MCF7 cells were orthotopically implanted into the mammary fat pads of NOD/SCID female mice. 17β-estradiol 0.72 mg 90-day pellet (Innovative Research of America) were implanted 2-3 days prior to MCF7 cell implant. […] Compound A- and/or combination partner-treated mice were dosed orally once daily. Fulvestrant-treated mice were dosed subcutaneously twice per week for 2 weeks followed by once weekly for 2 weeks.\nEight- to ten-week-old female NOD/SCID mice were surgically implanted with a 0.36 mg 90-day release 17β-estradiol pellet subcutaneously. […] Fulvestrant (200 mg/kg, subcutaneously; twice per week for 2 weeks followed by once-weekly for 2 weeks) was also evaluated as a single agent and in combination with abemaciclib and ribociclib. […]\n(§2) Vehicle for abemaciclib was 1% […] (HEC) in 20 mM HCl pH2. […] Tumor volumes were measured twice per week in efficacy studies and calculated using (width^2×length)/2, where all measurements are in millimeters (mm) and the tumor volume is in mm^3. Body weights were recorded twice per week. […] Tumor growth inhibition (TGI) was calculated as follows, where tumor volume is in mm^3: […]"}, "MCF7 cells": {"test_system": "MCF7 cells", "assay": "Live-cell imaging proliferation assay (Incucyte), MCF7", "format": "cell-based", "settings": "for GI50: Homo sapiens, MCF7, 120 h, read-out: approximate GI50; for mean decrease in MCF7 cell growth relative to control: 5 days, Compound A 10 nM", "description": "(§3) FIGS. 1A-1H are graphs showing quantification of the MCF7 and T47D live-cell imaging proliferation assays. […] Each plot is representative of three independent experiments. […] Each plot is representative of three independent experiments, except for the T47D fulvestrant arms in FIGS. 1A and 1C, which are the result of 2 independent experiments). FIGS. 1B, 1D, 1F and 1H show differences in relative MCF7 and T47D cell growth compared to vehicle control at 120-hours of treatment. Graphs show the mean of three independent experiments, except for the T47D fulvestrant arms in FIGS. 1B and 1D, which are the result of 2 independent experiments). Error bars=standard error of the mean (SEM). *p<0.025, **p≤0.008, ***p≤0.0006, ****p<0.0001, ns=not significant (one-way ANOVA test).\n(§4) MCF7 or T47D cells were seeded in 6 well plates and treated with the indicated concentrations of compounds. The plate was then placed in the Incucyte® S3 Live-Cell Analysis System and images were acquired every 4 hours for a total of 5 days. Data were analyzed using the Incucyte® Software v2020C which quantified cell surface area coverage as confluence values. Relative growth was calculated for all timepoints for all growth conditions relative to the confluence value observed for the control at 120 hours (FIGS. 1A and 1C). Graphing and statistical analyses were performed using Graphpad Prism (GraphPad Software).\n(§5) For fulvestrant and fulvestrant plus abemaciclib, mean decreases in MCF7 cell growth were 48% and 68%, respectively."}, "MCF7 xenograft": {"test_system": "MCF7 xenograft", "assay": "MCF7 xenograft model, palbociclib study", "format": "in vivo, NOD/SCID mice", "settings": "28 days; Compound A 30 mg/kg PO QD, fulvestrant 200 mg/kg SC, palbociclib 60 mg/kg PO QD; FIG. 5", "method": "Female severe combined immunodeficient mouse in non-obese background (NOD/scid) mice were implanted with MCF7 cells and compound administration was initiated once the tumors reached 200 mm^3. Tumor volumes were evaluated twice per week for 28 days. […] Data are presented as mean±standard error of the mean (SEM)\nas §1\nas §2, with “pH2. Vehicle for ribociclib was 0.5% methylcellulose. Vehicle for fulvestrant was 10% w/v ethanol, 10% w/v benzyl alcohol, 15% w/v benzyl benzoate, made up to 100% w/v with castor oil.” for “pH2.”"}, "T47D cells": {"test_system": "T47D cells", "assay": "Live-cell imaging proliferation assay (Incucyte), T47D", "format": "cell-based", "settings": "Homo sapiens, 120 h; for GI50: read-out: approximate GI50", "description": "as §3, §4, §5"}, "[2]": {"test_system": "MCF7 orthotopic xenograft", "assay": "MCF7 orthotopic xenograft model, abemaciclib study", "format": "in vivo, NOD/SCID mice", "settings": "28 days; Compound A 30 mg/kg, abemaciclib 30 mg/kg orally QD, fulvestrant 200 mg/kg SC; FIG. 3A", "protocol": "Briefly, MCF7 cells were orthotopically implanted into the mammary fat pads of NOD/SCID female mice. 17β-estradiol 0.72 mg 90-day pellet (Innovative Research of America) were implanted 2-3 days prior to MCF7 cell implant. […] Fulvestrant-treated mice were dosed subcutaneously twice per week for 2 weeks followed by once weekly for 2 weeks.\nEight- to ten-week-old female NOD/SCID mice were surgically implanted with a 0.36 mg 90-day release 17β-estradiol pellet subcutaneously. One to two days later each mouse was injected with 5×10^6/200 μL MCF7 cells into one mammary fat pad. […] Fulvestrant (200 mg/kg, subcutaneously; twice per week for 2 weeks followed by once-weekly for 2 weeks) was also evaluated as a single agent and in combination with abemaciclib and ribociclib. […]\nVehicle for abemaciclib was 1% hydroxymethyl cellulose (HEC) in 20 mM HCl pH2. […] Tumor volumes were measured twice per week in efficacy studies and calculated using (width^2×length)/2, where all measurements are in millimeters (mm) and the tumor volume is in mm^3. Body weights were recorded twice per week. […] Tumor growth inhibition (TGI) was calculated as follows, where tumor volume is in mm^3:"}, "[3]": {"assay": "FIH Study Part C: pharmacokinetics in patients with breast cancer", "format": "in vivo, human", "settings": "preliminary", "method": "Additional evaluation will include single- and multiple-dose pharmacokinetics and biochemical activity.\nPalbociclib was administered orally once a day at 125 mg/day for 21 days followed by 7 days off treatment for each 28-day cycle according to product labeling and in compliance with its local prescribing information.\nAnticancer Drugs. 2018 March; 29 (3): 271280)."}, "[4]": {"assay": "Clinical Pharmacology Study: safety in healthy volunteers", "settings": "200 mg, 47 healthy participants"}, "[5]": {"assay": "Biopharmaceutics Classification System classification", "format": "physicochemical"}, "[6]": {"assay": "Interconversion of Compound A to Compound B", "format": "physicochemical"}, "[7]": {"settings": "human, in vivo"}, "[8]": {"assay": "Exposure of Compound B relative to Compound A (preclinical data)"}, "ER": {"target": "T1, ER (Homo sapiens, UniProt P03372)", "T1 construct": "degradation by PROTAC", "T1 sequence (P03372 1-595)": "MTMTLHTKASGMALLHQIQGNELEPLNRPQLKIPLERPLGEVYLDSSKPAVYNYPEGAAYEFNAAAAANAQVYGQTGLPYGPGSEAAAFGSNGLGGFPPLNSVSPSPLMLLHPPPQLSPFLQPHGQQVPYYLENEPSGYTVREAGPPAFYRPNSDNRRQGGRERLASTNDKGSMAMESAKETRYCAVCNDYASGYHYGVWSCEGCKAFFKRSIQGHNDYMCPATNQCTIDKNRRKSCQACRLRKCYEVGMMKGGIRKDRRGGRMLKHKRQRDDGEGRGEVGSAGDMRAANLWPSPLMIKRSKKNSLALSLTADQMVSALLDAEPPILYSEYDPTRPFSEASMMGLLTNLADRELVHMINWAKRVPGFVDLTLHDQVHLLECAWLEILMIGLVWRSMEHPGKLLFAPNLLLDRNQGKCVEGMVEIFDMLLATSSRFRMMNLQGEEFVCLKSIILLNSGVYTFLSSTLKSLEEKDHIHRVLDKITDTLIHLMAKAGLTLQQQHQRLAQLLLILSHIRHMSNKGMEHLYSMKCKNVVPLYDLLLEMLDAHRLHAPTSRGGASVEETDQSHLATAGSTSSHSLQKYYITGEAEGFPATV", "assay": "ER degradation"}, "[9]": {"settings": "abemaciclib experiment, fulvestrant 1 nM, abemaciclib 40 nM (approx. GI50)"}, "[10]": {"settings": "read-out: mean decrease in T47D cell growth relative to control"}, "[11]": {"settings": "read-out: mean change in T47D cell growth relative to control"}, "[12]": {"settings": "with palbociclib, 180 up to 500 mg QD Compound A, Cycle 1 Day 1 and Day 15"}}, "note": "Like-named read-outs stand apart in the source and are kept apart here.", "data": [{"smiles": "C[C@]12CC[C@@H]3c4ccc(O)cc4C[C@@H](CCCCCCCCC[S+]([O-])CCCC(F)(F)C(F)(F)F)[C@H]3[C@@H]1CC[C@@H]2O", "note": "(stereo partly shown) [fulvestrant]", "values": [{"measurement": "tumor growth inhibition (TGI)", "setting": "[1]", "value": 31, "unit": "%"}, {"measurement": "GI50", "setting": "MCF7 cells", "value": "~1", "unit": "nM"}, {"measurement": "mean decrease in MCF7 cell growth relative to control", "setting": "MCF7 cells; [9]", "value": 48, "unit": "%"}, {"measurement": "tumor growth inhibition (TGI)", "setting": "MCF7 xenograft", "value": 46, "unit": "%"}, {"measurement": "GI50", "setting": "T47D cells", "value": "~1", "unit": "nM"}, {"measurement": "inhibition at 0.001 µM", "setting": "T47D cells; [10]", "value": 16, "unit": "%"}, {"measurement": "tumor growth inhibition (TGI)", "setting": "[2]", "value": 42, "unit": "%"}]}, {"smiles": "CC(=O)c1c(C)c2cnc(Nc3ccc(N4CCNCC4)cn3)nc2n(C2CCCC2)c1=O", "note": "[palbociclib, 6-acetyl-8-cyclopentyl-5-methyl-2-(5-piperazin-1-yl-pyridin-2-ylamino)-8H-pyrido[2,3-d]pyrimidin-7-one]", "values": [{"measurement": "increase in palbociclib AUCtau vs PALOMA-1 and PALOMA-2", "setting": "[3]; Cycle 1 Day 15, 125 mg QD palbociclib with 500 mg QD Compound A", "value": "~34", "unit": "%"}]}, {"smiles": "O=C1CC[C@H](N2Cc3cc(N4CCN(CC5CCN(c6ccc([C@@H]7c8ccc(O)cc8CC[C@@H]7c7ccccc7)cc6)CC5)CC4)ccc3C2=O)C(=O)N1", "note": "[Compound A, (S)-3-(5-(4-((1-(4-((1R,2S)-6-hydroxy-2-phenyl-1,2,3,4-tetrahydronaphthalen-1-yl)phenyl)piperidin-4-yl)methyl)piperazin-1-yl)-1-oxoisoindolin-2-yl)piperidine-2,6-dione]", "values": [{"measurement": "TRAEs of Grade 2 or higher", "setting": "[4]", "value": "no TRAEs of Grade 2 or higher were reported"}, {"measurement": "tolerability", "setting": "[4]", "value": "well-tolerated"}, {"measurement": "GI50", "setting": "MCF7 cells", "value": "~10", "unit": "nM"}, {"measurement": "tumor growth inhibition (TGI)", "setting": "MCF7 xenograft", "value": 105, "unit": "%"}, {"measurement": "Biopharmaceutics Classification System Class", "setting": "[5]", "value": "Class IV"}, {"measurement": "permeability (BCS)", "setting": "[5]", "value": "low permeability"}, {"measurement": "solubility (BCS)", "setting": "[5]", "value": "low solubility"}, {"measurement": "GI50", "setting": "T47D cells", "value": "~10", "unit": "nM"}, {"measurement": "inhibition at 0.01 µM", "setting": "T47D cells; [11]", "value": 41, "unit": "%"}, {"measurement": "inhibition at 0.01 µM", "setting": "T47D cells; [10]", "value": 42, "unit": "%"}, {"measurement": "interconversion to Compound B", "setting": "[6]", "value": "can interconvert"}, {"measurement": "SAEs, SARs or deaths", "setting": "[7]", "value": "No SAEs, SARs or deaths were reported"}]}, {"smiles": "CCN1CCN(Cc2ccc(Nc3ncc(F)c(-c4cc(F)c5nc(C)n(C(C)C)c5c4)n3)nc2)CC1", "note": "[abemaciclib, N-(5-((4-ethylpiperazin-1-yl)methyl)pyridin-2-yl)-5-fluoro-4-(4-fluoro-1-isopropyl-2-methyl-1H-benzo[d]imidazol-6-yl)pyrimidin-2-amine]", "values": [{"measurement": "GI50", "setting": "MCF7 cells", "value": "~40", "unit": "nM"}, {"measurement": "mean decrease in MCF7 cell growth relative to control", "setting": "MCF7 cells; [9]", "value": 49, "unit": "%"}, {"measurement": "GI50", "setting": "T47D cells", "value": "~40", "unit": "nM"}, {"measurement": "inhibition at 0.04 µM", "setting": "T47D cells; [10]", "value": 32, "unit": "%"}, {"measurement": "tumor growth inhibition (TGI)", "setting": "[2]", "value": 50, "unit": "%"}]}, {"smiles": "O=C1CC[C@@H](N2Cc3cc(N4CCN(CC5CCN(c6ccc([C@@H]7c8ccc(O)cc8OC[C@@H]7c7ccccc7)cc6)CC5)CC4)ccc3C2=O)C(=O)N1", "note": "[Compound B]", "values": [{"measurement": "exposure of Compound B compared to Compound A", "setting": "[8]", "value": "< 26", "unit": "%"}, {"measurement": "degradation of the ER", "setting": "ER", "value": "does not degrade the ER"}, {"measurement": "AUCtau, dose dependence", "setting": "[3]; [12]", "value": "dose-dependent increases"}, {"measurement": "Cmax, dose dependence", "setting": "[3]; [12]", "value": "dose-dependent increases"}]}, {"smiles": "CN(C)C(=O)c1cc2cnc(Nc3ccc(N4CCNCC4)cn3)nc2n1C1CCCC1", "note": "[ribociclib, 7-cyclopentyl-N,N-dimethyl-2-[(5-piperazin-1-ylpyridin-2-yl)amino]pyrrolo[2,3-d]pyrimidine-6-carboxamide]", "values": [{"measurement": "tumor growth inhibition (TGI)", "setting": "[1]", "value": 58, "unit": "%"}, {"measurement": "GI50", "setting": "MCF7 cells", "value": "~40", "unit": "nM"}, {"measurement": "mean decrease in MCF7 cell growth relative to control", "setting": "MCF7 cells; ribociclib experiment, ribociclib 40 nM (approx. GI50)", "value": 44, "unit": "%"}, {"measurement": "GI50", "setting": "T47D cells", "value": "~40", "unit": "nM"}, {"measurement": "inhibition at 0.04 µM", "setting": "T47D cells; [11]", "value": 32, "unit": "%"}]}]}
